From patent publication US20220194918A1, “PLEUROMULIN LIPOIC ACID ESTER WITH ANTIBACTERIAL ACTIVITY AND A METHOD OF PREPARING THE SAME” (SHAANXI UNIVERSITY OF SCIENCE AND TECHNOLOGY, priority 2020, published 2022)

Key:
Type in all cases: cell-based
[1] = test system: multi-resistant Staphylococcus aureus 18-206; test: Paper diffusion drug sensitivity test, multi-resistant Staphylococcus aureus 18-206; settings: for Zone of inhibition: Multi-resistant Staphylococcus aureus 18-206, 30 μg/tablet paper disc, LB plate, 37° C., 24 h; for inhibitory effect (in words): multi-drug resistant Staphylococcus aureus 18-206, FIGS. 1-3 and Table 1
Description: (§1) The antimicrobial efficacy was determined by a paper diffusion drug sensitivity test.
(§2) Experimental strains: multi-resistant Staphylococcus aureus 18-206, multi-resistant Staphylococcus aureus 18-222, multi-resistant Staphylococcus aureus 18-596. The experimental strain was identified by Huashan Hospital Affiliated to Fudan University (Institute of Antibiotic of Fudan University).
(§3) Drug sensitive paper: The drug sensitive paper is a special drug sensitive paper with a diameter of 6.35 mm and a water absorption of 0.02 mL. The control drug was vancomycin (30μg/tablet); the test drugs were pleuromulin (30 μg/tablet), lipoic acid (30 μg/tablet) and pleuromulin lipoic acid ester (30 μg/tablet).
(§4) Reagents: LB agar medium, LA broth medium, 0.5% DMSO solution.
(§5) The experimental strains were inoculated in non-selective medium and placed in air at 37° C. for 24 h. Pick a single colony that grows well and inoculate it into broth medium, incubate at 35° C.±2° C. for 6 hours, and use LA broth medium to calibrate the concentration of the bacterial solution to 0.5 Mie turbidimetric tube (1.5×10^8 CFU/mL). A bacterial suspension is obtained.
(§6) Weigh the LB dry powder, sterilize at 103.4 Kpa, 121.3° C. high-pressure steam for 15 min, and then put it in a 40° C.-50° C. water bath. Place a sterile empty plate (inner diameter 9 cm) on the surface of the ultra-clean table water table, shake and shake LB, and then pour the plate. The thickness of each plate is 3 mm to 4 mm. After the plate is cooled at room temperature, store it in the refrigerator at 2° C.-8° C. Use a sterile cotton swab to dip the bacterial solution, and evenly coat the surface of the LB plate 3 times. After inoculation of the bacterial suspension, the LB plate was dried at room temperature for 3 min to 5 min. Use sterile forceps to closely attach the antibacterial drug paper to the dish. Put the dish upside down and place it in a 37° C. incubator for 24 h. Observe the result and measure the diameter. Taking 0.5% DMSO solution as a negative control, the antibacterial activity is expressed by the diameter of the inhibition zone. The inhibition zone 17 mm, sensitive; the inhibition zone is 15 mm-16 mm, intermediary; the inhibition zone 14 mm, drug resistance.

[2] = test system: multi-resistant Staphylococcus aureus 18-222; test: Paper diffusion drug sensitivity test, multi-resistant Staphylococcus aureus 18-222; settings: for Zone of inhibition: Multi-resistant Staphylococcus aureus 18-222, 30 μg/tablet paper disc, LB plate, 37° C., 24 h; for inhibitory effect (in words): multi-drug resistant Staphylococcus aureus 18-222, FIGS. 1-3 and Table 1
Description: as §1, §2, §3, §4, §5, §6

[3] = test system: multi-resistant Staphylococcus aureus 18-596; test: Paper diffusion drug sensitivity test, multi-resistant Staphylococcus aureus 18-596; settings: for Zone of inhibition: Multi-resistant Staphylococcus aureus 18-596, 30 μg/tablet paper disc, LB plate, 37° C., 24 h; for inhibitory effect (in words): multi-drug resistant Staphylococcus aureus 18-596, FIGS. 1-3 and Table 1
Description: as §1, §2, §3, §4, §5, §6

Compound	Zone of inhibition [1]	inhibitory effect (in words) [1]	Zone of inhibition [2]	inhibitory effect (in words) [2]	Zone of inhibition [3]	inhibitory effect (in words) [3]	diameter of bacteriostatic zone ([3]; multidrug resistant Staphylococcus aureus 18-596)
C=C[C@]1(C)C[C@@H](OC(=O)CO)[C@]2(C)[C@H](C)CC[C@]3(CCC(=O)[C@H]32)[C@@H](C)[C@@H]1O [Pleuromulin]	0 mm	no inhibitory effect	0 mm	no inhibitory effect	0 mm	no inhibitory effect	–
O=C(O)CCCC[C@@H]1CCSS1 (racemic) [Lipoic acid]	0 mm	no inhibitory effect	0 mm	no inhibitory effect	0 mm	no inhibitory effect	–
C=C[C@]1(C)C[C@@H](OC(=O)COC(=O)CCCCC2CCSS2)[C@]2(C)CC[C@@H](C)[C@@]3(CCC(=O)[C@@H]23)[C@@H](C)[C@@H]1O (stereo partly drawn) [Pleuromulin lipoic acid ester, 2-(((3aS,4R,5S,6S, 8R,9R,9aR,12R)-5-hydroxy-4,6,9,12-tetramethyl-1-oxo-6-vinyldecahydro-3 a, 9-propanocyclopenta[8]annulen-8-yl)oxy)-2-oxoethyl 5-(1,2-dithiolan-3-yl)pentanoate]	16 mm	strong inhibitory effects	16 mm	strong inhibitory effects	20 mm	strong inhibitory effects	up to 21 mm
CN[C@H](CC(C)C)C(=O)N[C@H]1C(=O)N[C@@H](CC(N)=O)C(=O)N[C@H]2C(=O)N[C@H]3C(=O)N[C@H](C(=O)N[C@H](C(=O)O)c4cc(O)cc(O)c4-c4cc3ccc4O)[C@H](O)c3ccc(c(Cl)c3)Oc3cc2cc(c3O[C@@H]2O[C@H](CO)[C@@H](O)[C@H](O)[C@H]2O[C@H]2C[C@](C)(N)[C@H](O)[C@H](C)O2)Oc2ccc(cc2Cl)[C@H]1O [Vancomycin]	17 mm	–	18 mm	–	21 mm	–	–
